pIC50: −log10 of the molar value.
Tested on: NCI-H1876 complex spheroid growth, % test/control
Test: Anticancer human tumor NCI-H1876 cell line growth inhibition [Asc];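 also: compound exposure lasted 7 days starting three days after seeding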;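 as to viability, T/C: 100% = DMSO vehicle control wells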
Settings: for pIC50: curve of first compound; for viability, T/C: stronger effect = lower value
How it was run: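 Concentration series start at each agent's clinical Cmax, or at 10 microM when none is established, and drop in half-log steps; agents are applied alone or together to complex spheroids built with HUVEC and hMSC.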

[1] = second compound 0.0316 µM, first compound 0.00316 µM
[2] = second compound 0.0316 µM, first compound 0.01 µM
[3] = second compound 0.0316 µM, first compound 0.0316 µM
[4] = second compound 0.0316 µM, first compound 0.1 µM
[5] = second compound 0.0316 µM, first compound 0.316 µM
[6] = second compound 0.0316 µM, first compound 1 µM
[7] = second compound 0.1 µM, first compound 0.00316 µM
[8] = second compound 0.1 µM, first compound 0.01 µM
[9] = second compound 0.1 µM, first compound 0.0316 µM
[10] = second compound 0.1 µM, first compound 0.1 µM
[11] = second compound 0.1 µM, first compound 0.316 µM
[12] = second compound 0.1 µM, first compound 1 µM
[13] = second compound 0.316 µM, first compound 0.00316 µM
[14] = second compound 0.316 µM, first compound 0.01 µM
[15] = second compound 0.316 µM, first compound 0.0316 µM
[16] = second compound 0.316 µM, first compound 0.1 µM
[17] = second compound 0.316 µM, first compound 0.316 µM
[18] = second compound 0.316 µM, first compound 1 µM
[19] = second compound 1 µM, first compound 0.00316 µM
[20] = second compound 1 µM, first compound 0.01 µM
[21] = second compound 1 µM, first compound 0.0316 µM
[22] = second compound 1 µM, first compound 0.1 µM
[23] = second compound 1 µM, first compound 0.316 µM
[24] = second compound 1 µM, first compound 1 µM
[25] = second compound 3.16 µM, first compound 0.00316 µM
[26] = second compound 3.16 µM, first compound 0.01 µM
[27] = second compound 3.16 µM, first compound 0.0316 µM
[28] = second compound 3.16 µM, first compound 0.1 µM
[29] = second compound 3.16 µM, first compound 0.316 µM
[30] = second compound 3.16 µM, first compound 1 µM
[31] = second compound 10 µM, first compound 0.00316 µM
[32] = second compound 10 µM, first compound 0.01 µM
[33] = second compound 10 µM, first compound 0.0316 µM
[34] = second compound 10 µM, first compound 0.1 µM
[35] = second compound 10 µM, first compound 0.316 µM
[36] = second compound 10 µM, first compound 1 µM

CCN1CCN(Cc2ccc(Nc3ncc(F)c(-c4cc(F)c5nc(C)n(C(C)C)c5c4)n3)nc2)CC1 + Cc1c(S(C)(=O)=O)c(-c2cc(F)cc(N3CCN(c4ccc(NS(=O)(=O)c5ccc(NC(CCN6CCC(C(=O)OCCCP(=O)(O)O)CC6)CSc6ccccc6)c(S(=O)(=O)C(F)(F)F)c5)cc4)CC3)c2)c(-c2ccc(Cl)cc2)n1C(C)C
pIC50 (second compound 0.0316 µM): < 6.00
pIC50 (second compound 0.1 µM): < 6.00
pIC50 (second compound 0.316 µM): < 6.00
pIC50 (second compound 1 µM): < 6.00
pIC50 (second compound 3.16 µM): < 6.00
pIC50 (second compound 10 µM): < 6.00
viability, T/C [1]: 97.1%
viability, T/C [2]: 94%
viability, T/C [3]: 97.9%
viability, T/C [4]: 98.7%
viability, T/C [5]: 117%
viability, T/C [6]: 130%
viability, T/C [7]: 98.7%
viability, T/C [8]: 101%
viability, T/C [9]: 100%
viability, T/C [10]: 112%
viability, T/C [11]: 121%
viability, T/C [12]: 127%
viability, T/C [13]: 106%
viability, T/C [14]: 96.2%
viability, T/C [15]: 120%
viability, T/C [16]: 106%
viability, T/C [17]: 115%
viability, T/C [18]: 125%
viability, T/C [19]: 101%
viability, T/C [20]: 100%
viability, T/C [21]: 98.1%
viability, T/C [22]: 109%
viability, T/C [23]: 121%
viability, T/C [24]: 116%
viability, T/C [25]: 111%
viability, T/C [26]: 104%
viability, T/C [27]: 91.8%
viability, T/C [28]: 103%
viability, T/C [29]: 114%
viability, T/C [30]: 110%
viability, T/C [31]: 105%
viability, T/C [32]: 104%
viability, T/C [33]: 94.7%
viability, T/C [34]: 111%
viability, T/C [35]: 122%
viability, T/C [36]: 102%

NC(=O)C(=Cn1cnc(-c2cc(C(F)(F)F)cc(C(F)(F)F)c2)n1)c1cncnc1 + Cc1c(S(C)(=O)=O)c(-c2cc(F)cc(N3CCN(c4ccc(NS(=O)(=O)c5ccc(NC(CCN6CCC(C(=O)OCCCP(=O)(O)O)CC6)CSc6ccccc6)c(S(=O)(=O)C(F)(F)F)c5)cc4)CC3)c2)c(-c2ccc(Cl)cc2)n1C(C)C
pIC50 (second compound 0.0316 µM): < 6.52
pIC50 (second compound 0.1 µM): < 6.52
pIC50 (second compound 0.316 µM): 6.56
pIC50 (second compound 1 µM): 6.65
pIC50 (second compound 3.16 µM): 6.79
pIC50 (second compound 10 µM): 6.83
viability, T/C (second compound 0.0316 µM, first compound 0.000949 µM): 105%
viability, T/C (second compound 0.0316 µM, first compound 0.003 µM): 102%
viability, T/C (second compound 0.0316 µM, first compound 0.00949 µM): 94.4%
viability, T/C (second compound 0.0316 µM, first compound 0.03 µM): 97.8%
viability, T/C (second compound 0.0316 µM, first compound 0.0949 µM): 105%
viability, T/C (second compound 0.0316 µM, first compound 0.3 µM): 55.1%
viability, T/C (second compound 0.1 µM, first compound 0.000949 µM): 99.3%
viability, T/C (second compound 0.1 µM, first compound 0.003 µM): 112%
viability, T/C (second compound 0.1 µM, first compound 0.00949 µM): 113%
viability, T/C (second compound 0.1 µM, first compound 0.03 µM): 106%
viability, T/C (second compound 0.1 µM, first compound 0.0949 µM): 101%
viability, T/C (second compound 0.1 µM, first compound 0.3 µM): 52.5%
viability, T/C (second compound 0.316 µM, first compound 0.000949 µM): 102%
viability, T/C (second compound 0.316 µM, first compound 0.003 µM): 107%
viability, T/C (second compound 0.316 µM, first compound 0.00949 µM): 91.3%
viability, T/C (second compound 0.316 µM, first compound 0.03 µM): 97.1%
viability, T/C (second compound 0.316 µM, first compound 0.0949 µM): 96.3%
viability, T/C (second compound 0.316 µM, first compound 0.3 µM): 45.8%
viability, T/C (second compound 1 µM, first compound 0.000949 µM): 99.6%
viability, T/C (second compound 1 µM, first compound 0.003 µM): 96.9%
viability, T/C (second compound 1 µM, first compound 0.00949 µM): 89.7%
viability, T/C (second compound 1 µM, first compound 0.03 µM): 96%
viability, T/C (second compound 1 µM, first compound 0.0949 µM): 88.7%
viability, T/C (second compound 1 µM, first compound 0.3 µM): 36.6%
viability, T/C (second compound 3.16 µM, first compound 0.000949 µM): 101%
viability, T/C (second compound 3.16 µM, first compound 0.003 µM): 92.5%
viability, T/C (second compound 3.16 µM, first compound 0.00949 µM): 95.5%
viability, T/C (second compound 3.16 µM, first compound 0.03 µM): 92.9%
viability, T/C (second compound 3.16 µM, first compound 0.0949 µM): 69.4%
viability, T/C (second compound 3.16 µM, first compound 0.3 µM): 27.9%
viability, T/C (second compound 10 µM, first compound 0.000949 µM): 109%
viability, T/C (second compound 10 µM, first compound 0.003 µM): 99.9%
viability, T/C (second compound 10 µM, first compound 0.00949 µM): 90%
viability, T/C (second compound 10 µM, first compound 0.03 µM): 92.5%
viability, T/C (second compound 10 µM, first compound 0.0949 µM): 66.9%
viability, T/C (second compound 10 µM, first compound 0.3 µM): 23.1%

O=C(c1ccc(F)c(F)c1Nc1ccc(I)cc1F)N1CC(O)([C@@H]2CCCCN2)C1 + Cc1c(S(C)(=O)=O)c(-c2cc(F)cc(N3CCN(c4ccc(NS(=O)(=O)c5ccc(NC(CCN6CCC(C(=O)OCCCP(=O)(O)O)CC6)CSc6ccccc6)c(S(=O)(=O)C(F)(F)F)c5)cc4)CC3)c2)c(-c2ccc(Cl)cc2)n1C(C)C
pIC50 (second compound 0.0316 µM): < 6.00
pIC50 (second compound 0.1 µM): < 6.00
pIC50 (second compound 0.316 µM): < 6.00
pIC50 (second compound 1 µM): < 6.00
pIC50 (second compound 3.16 µM): < 6.00
pIC50 (second compound 10 µM): < 6.00
viability, T/C [1]: 102%
viability, T/C [2]: 98.9%
viability, T/C [3]: 108%
viability, T/C [4]: 92.3%
viability, T/C [5]: 85.3%
viability, T/C [6]: 71.7%
viability, T/C [7]: 95.4%
viability, T/C [8]: 97.5%
viability, T/C [9]: 94.6%
viability, T/C [10]: 97.6%
viability, T/C [11]: 86.9%
viability, T/C [12]: 81%
viability, T/C [13]: 96.5%
viability, T/C [14]: 102%
viability, T/C [15]: 89.5%
viability, T/C [16]: 102%
viability, T/C [17]: 84.2%
viability, T/C [18]: 78.4%
viability, T/C [19]: 101%
viability, T/C [20]: 102%
viability, T/C [21]: 93.9%
viability, T/C [22]: 92.1%
viability, T/C [23]: 92%
viability, T/C [24]: 77.1%
viability, T/C [25]: 109%
viability, T/C [26]: 98.6%
viability, T/C [27]: 91%
viability, T/C [28]: 85.8%
viability, T/C [29]: 94.2%
viability, T/C [30]: 74.9%
viability, T/C [31]: 103%
viability, T/C [32]: 92.2%
viability, T/C [33]: 92.5%
viability, T/C [34]: 102%
viability, T/C [35]: 93.5%
viability, T/C [36]: 79.5%
